Data taken from patent US7790749B2, “Use of pleuromutilins for the treatment of disorders caused by Helicobacter pylori” (Nabriva Therapeutics AG, priority 2002, dated 2010).
Values after ≈ are worked out from the molar mass of the structure shown. Where two headings read alike, the source gives them in different places.

Assays:
Type in all cases: cell-based
H.pylori ATCC 49503 = assay: Agar Dilution Method, MIC against H.pylori ATCC 49503; details: Helicobacter pylori, ATCC49503, 72 h, read-out: minimum inhibitory concentrations (MIC)
Experimental: (§1) Activity against strains of Helicobacter pylori is determined according to the Agar Dilution Method, using Mueller Hinton agar, supplementet with >2 week old horse blood (5% v/v), incubation at 35° C. for 3 days in a gas system-generated microaerobic atmosphere according to NCCLS recommendations, such as disclosed e.g. in “Methods for dilution antimicrobial susceptibility tests for bacteria that grow aerobically ”—Fourth edition; approved standard. M7-A4 Vol. 17 No. 2 (1997) and M100-S9 Vol. 19 No. 1 (1999).
(§2) Activity of TEST COMPOUNDS (TCs) against H.pylori strains ATCC 43504, 43526, 43629, 49503 and 51652 is determined according to the Agar Dilution Method, using Mueller Hinton agar, supplementet with >2 week old horse blood (5% v/v), incubation at 35° C. for 3 days in a gas system-generated microaerobic atmosphere according to NCCLS recommendations, such as disclosed in “Methods for dilution antimicrobial susceptibility tests for bacteria that grow aerobically “—Fourth edition; approved standard. M7-A4 Vol. 17 No. 2 (1997) and M100-S9 Vol. 19 No. 1(1999).

H.pylori ATCC 51652 = assay: Agar Dilution Method, MIC against H.pylori ATCC 51652; details: Helicobacter pylori, ATCC51652, 72 h, read-out: minimum inhibitory concentrations (MIC)
Experimental: as §1, §2

H.pylori ATCC 43504 = assay: Agar Dilution Method, MIC against H.pylori ATCC 43504; details: Helicobacter pylori, ATCC43504, 72 h, read-out: minimum inhibitory concentrations (MIC)
Experimental: as §1, §2

H.pylori ATCC 43629 = assay: Agar Dilution Method, MIC against H.pylori ATCC 43629; details: Helicobacter pylori, ATCC43629, 72 h, read-out: minimum inhibitory concentrations (MIC)
Experimental: as §1, §2

H.pylori ATCC 43526 = assay: Agar Dilution Method, MIC against H.pylori ATCC 43526; details: Helicobacter pylori, ATCC43526, 72 h, read-out: minimum inhibitory concentrations (MIC)
Experimental: as §1, §2

[1] = H.pylori/49503, Mueller Hinton agar, 5% horse blood, 35° C., 3 days, microaerobic
[2] = H.pylori/51652, Mueller Hinton agar, 5% horse blood, 35° C., 3 days, microaerobic
[3] = H.pylori/43504, Mueller Hinton agar, 5% horse blood, 35° C., 3 days, microaerobic
[4] = H.pylori/43629, Mueller Hinton agar, 5% horse blood, 35° C., 3 days, microaerobic
[5] = H.pylori/43526, Mueller Hinton agar, 5% horse blood, 35° C., 3 days, microaerobic

Structure (SMILES) | MIC (H.pylori ATCC 49503; [1]) | MIC (H.pylori ATCC 51652; [2]) | MIC (H.pylori ATCC 43504; [3]) | MIC (H.pylori ATCC 43629; [4]) | MIC (H.pylori ATCC 43526; [5]) | MIC (H.pylori ATCC 49503) | MIC (H.pylori ATCC 51652) | MIC (H.pylori ATCC 43504) | MIC (H.pylori ATCC 43629) | MIC (H.pylori ATCC 43526)
C=C[C@]1(C)C[C@@H](OC(=O)CSC(C)(C)CNC(=O)[C@H](N)C(C)C)[C@]2(C)[C@H](C)CC[C@]3(CCC(=O)[C@H]32)[C@@H](C)[C@@H]1O [TC-I, Valnemulin] | < 0.0125 µg/mL | 0.025 µg/mL (≈ 0.0443 µM) | 0.025 µg/mL (≈ 0.0443 µM) | < 0.0125 µg/mL | 0.05 µg/mL (≈ 0.0885 µM) | – | – | – | – | –
C=C[C@]1(C)C[C@@H](OC(=O)CSC2CCCN(C(=O)C(N)C(C)C)C2)[C@]2(C)C(C)CCC3(CCC(=O)C32)[C@@H](C)C1O (some centres unmarked) [TC-III] | 0.025 µg/mL (≈ 0.0433 µM) | 0.025 µg/mL (≈ 0.0433 µM) | 0.025 µg/mL (≈ 0.0433 µM) | < 0.0125 µg/mL | 0.05 µg/mL (≈ 0.0867 µM) | – | – | – | – | –
C=C[C@]1(C)C[C@@H](OC(=O)CSc2cccc(NC(=O)[C@@H]3CCCCN3)c2)[C@]2(C)C(C)CCC3(CCC(=O)C32)[C@@H](C)C1O (some centres unmarked) [TC-II] | 0.025 µg/mL (≈ 0.0419 µM) | 0.025 µg/mL (≈ 0.0419 µM) | < 0.0125 µg/mL | < 0.0125 µg/mL | 0.05 µg/mL (≈ 0.0838 µM) | – | – | – | – | –
CN(C)[C@@H]1C(O)=C(C(N)=O)C(=O)[C@@]2(O)C(O)=C3C(=O)c4c(O)cccc4[C@@](C)(O)[C@H]3C[C@@H]12 [TEC, tetracycline] | – | – | – | – | – | 0.2 µg/mL (≈ 0.45 µM) | 0.2 µg/mL (≈ 0.45 µM) | 0.4 µg/mL (≈ 0.9 µM) | 0.4 µg/mL (≈ 0.9 µM) | 0.4 µg/mL (≈ 0.9 µM)
